The data set in a line: Serum concentration of drug over time after transdermal patch application onto laser-microporated skin (FIG. 9a-9b). It is filed as in vivo, human. The following applies: over about two hours. The protocol: The drug is entering the permeation surface by passive diffusion. The amount of drug entering the permeation surface is mainly determined by the permeation surface A(t) over time. Therefore, the serum concentration as a function of time can be determined by an appropriate poration of the skin 1 with an initial microporation at time TP.
FIG. 9a to 9b show the administration of the same amount of drug, for example 100 mg acetylsalicylic acid, the drug being arranged on the skin 1 as disclosed in FIG. 5e. Depending on the permeation surface A(t) as a function of time, the level of the serum concentration as well as the time period within which the drug is released, can be predescribed. In FIG. 9a the permeation surface A(t) is chosen such that the maximal serum concentration is about 25 g/l over a short period of time of about two hours. […] A further advantage is that the same amount of drug, e.g. the same patch, applied onto the skin 1, causes a different serum concentration, depending only on the function of the permeation surface A over time. This allows administering the same drug in different ways. This also allows administering the same drug in an individual way, in that the permeation surface is created depending on individual parameters of the person the drug is applied to.

Each structure is given as a SMILES string.

As to `CC(=O)Oc1ccccc1C(=O)O` [acetylsalicylic acid], the maximal serum concentration entry by setting is: (FIG. 9a, 100 mg acetylsalicylic acid in patch on microporated skin, transdermal application, chosen permeation surface A(t)) “about 25 g/l”; (FIG. 9b, fast application (turbo), same amount of drug (100 mg) in patch on microporated skin) “about 30 g/l”.
